In brackets after ≈: the same amount, converted by molar mass.
How the values were obtained:
Assay type in all cases: functional, cell-based
[1] = test system: HT-29; test: Cytotoxicity against human HT-29 cells
[2] = test system: A549; test: Cytotoxicity against human A549 cells
[3] = test system: MDA-MB-231; test: Cytotoxicity against human MDA-MB-231 cells

| SMILES | IC50 [1] [µg/mL] | IC50 [2] [µg/mL] | IC50 [3] [µg/mL] |
| --- | --- | --- | --- |
| CN1CCc2cn(C)c3c2C1=CC(=O)C3=O [DAMIRONE A] | 5 (≈ 23.1 µM) | 5 (≈ 23.1 µM) | 5 (≈ 23.1 µM) |
| O=C1C2=C(C3=NCCc4c[nH]c1c43)[C@]13C=C(Br)[C@@H](O)C[C@H]1S[C@@H](C3)N2 | 0.1 (≈ 0.239 µM) | 0.1 (≈ 0.239 µM) | 0.1 (≈ 0.239 µM) |
| C[N+]1=C2C=C(NCCc3ccc(O)cc3)C(=O)c3[nH]cc(c32)CC1 [MAKALUVAMINE J] | 5 | 5 | 5 |
| O=C1C2=C3C4=[N+](CCc5c[nH]c1c54)[C@@H]1[C@H](O)C=C4S[C@@H](C[C@@]43[C@H]1O)N2 | 0.1 | 0.1 | 0.1 |
| O=C1C[C@H]2S[C@H]3C[C@]2(C=C1Br)C1=C(N3)C(=O)c2[nH]cc3c2C1=NCC3 [DISCORHABDINE A] | 0.05 (≈ 0.12 µM) | 0.05 (≈ 0.12 µM) | 0.05 (≈ 0.12 µM) |
